# Test system: SARS-CoV-2 KOR-KCDC03-2020 strain
# Test: Prophylactic immunofluorescent infection assay in Vero E6 cells
# Type: cell-based
# Conditions: Severe acute respiratory syndrome coronavirus 2, compound added one hour prior to virus, MOI 0.0125, 24 hours
smiles,measurement,value
"CCC(CC)COC(=O)[C@H](C)N[P@](=O)(OC[C@H]1O[C@@](C#N)(c2ccc3c(N)ncnn23)[C@H](O)[C@@H]1O)Oc1ccccc1 [Remdesivir, remdesivir]",EC50,12.9 µM

# Source: patent US20230330180A1 (priority 2022, published 2023)
